Test results reported in patent publication US9340549B2, “Oxazolidinone compounds and derivatives thereof” (priority 2012, dated 2016).
pEC50, pIC50: −log10 of the molar value. Like-named read-outs stand apart in the source and are kept apart here.

Experiments:
[1] = system: total β-catenin in SW480 colorectal cells; test: cells; assay type: cell-based; details: Homo sapiens
In short: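 SW480 cells in growth medium (MEM alpha, 10% heat-inactivated FBS, 10 mM HEPES) treated with a 10-point, 3-fold dilution series of TNKS inhibitor for 40–48 h at 37 °C. Lysates run on an MSD sandwich immunoassay for total β-catenin, read by electrochemiluminescence.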

Axin2 in SW480 cells = test: cells; assay type: cell-based; details: read-out: Axin2 384 IF EC50 IP
In short: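 SW480 cells treated 24 h at 37° C (0.5% DMSO final), fixed/permeabilized, immunostained for Axin2. ArrayScan imaging quantified ring-spot intensity; Axin2 accumulation expressed as percent of control, EC50 from concentration-response.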

[2] = system: 8×TCF promoter-driven Firefly luciferase (Wnt reporter) in DLD-1 colorectal cells; test: DLD-1-STF assay, constitutively activated Wnt pathway in mutant APC cancer cell context; assay type: cell-based; details: Homo sapiens
Method: DLD-1-STF Assay. Constitutively Activated Wnt Pathway Assay in Mutant APC Cancer Cell Context
DLD-1 colorectal cells engineered with an 8×TCF promoter-driven Firefly (FF) luciferase gene (Wnt reporter) along with an EF1a promoter-driven Renilla (RN) luciferase gene (control reporter) were used to measure the potency of tankyrase compounds in the context of the constitutively activated Wnt pathway due to mutated APC in colorectal cancer cells. The engineered DLD-1 cells were plated (45 μL) at a density of 10,000 cells/well in black, clear-bottom, 96-well View plates (PerkinElmer) in normal growth medium (RPMI with 10% FBS with no antibiotics). Tankyrase inhibitors (5 μL) were transferred to cells from a three-fold serially diluted compound plate. A 10-point dilution series was tested starting at a concentration (10 μM final concentration in assay). Column 6 contained only DMSO and served as the “HI” control. […] The plates were incubated at 37° C. for 40 to 48 hours. The Dual-Glo Reagents (Promega) were added as directed by manufacturer to assay the FF and RN luciferase activity. Luciferase activity was measures using the EnVision multilabel plate reader (PerkinElmer).

[3] = system: 8×TCF promoter-driven Firefly luciferase (Wnt reporter) in HEK-293 cells; test: 2H9-STF assay, Wnt ligand activated HEK-293 assay in WT APC cellular context; assay type: cell-based; details: Homo sapiens
Method: HEK-293 cells engineered with an 8×TCF promoter-driven Firefly (FF) luciferase gene (Wnt reporter) along with an SV40 promoter-driven Renilla (RN) luciferase gene (control reporter) were used to measure the potency of tankyrase compounds in the context of Wnt ligand activation in a wild-type (non-APC mutated) cellular background. The engineered HEK-293 cells were plated (25 μL) at a density of 40,000 cells/well in black, clear-bottom, 96-well View plates (PerkinElmer) in normal growth medium (DMEM with 10% FBS with no antibiotics). Tankyrase inhibitors (5 μL) were transferred to cells from a three-fold serially diluted compound plate. A 10-point dilution series was tested starting at a concentration (10 μM final concentration in assay). Column 6 contained only DMSO and served as the “HI” control. Cells and compounds were incubated together for 1 hour at 37° C. after which the Wnt3a ligand (pathway inducer) was added to all wells except column 12 which served as the “LO” control. Twenty microliters of diluted recombinant mouse Wnt3a (R & D Systems) was added to the cells for a final concentration of 200 ng/mL (5 nM which is the Wnt3a˜EC80) and the plates were incubated at 37° C. for 18 to 24 hours. The Dual-Glo Reagents (Promega) were added as directed by manufacturer to assay the FF and RN luciferase activity. Luciferase activity was measures using the EnVision multilabel plate reader (PerkinElmer).

[4] = biological target: 6×HIS-tankyrase 1 (1091-1325) (Homo sapiens (Human), UniProt O95271); test: biochemical; assay type: biochemical; details: […] enzyme, 400 nM NAD, 60 minutes at room temperature; read-out: TNKS1 IP IC50
[5] = biological target: 6×HIS-tankyrase 2 (946-1162) (Homo sapiens (Human), UniProt Q9H2K2); test: Tankyrase 2 biochemical assay (AlphaLisa, anti-PAR detection); details: 4 nM enzyme, 250 nM NAD; read-out: TNKS2 IP IC50
[6] = SW480 cells, 40 to 48 hours, top concentration 10 μM, read-out: SW480-Total β-Catenin IC50 IP
[7] = HEK293, HEK-293 reporter cells, 200 ng/mL mouse Wnt3a, 18 to 24 hours, read-out: 2H9-Wnt3a-STF-FF/RL * 100 IC50
[8] = Homo sapiens, SW480, 24 h, SW480 cells, 24 hours
[9] = SW480, read-out: SW480-Total β-Catenin IC50 IP

Chain of 6×HIS-tankyrase 2 (946-1162) (Q9H2K2 946-1162): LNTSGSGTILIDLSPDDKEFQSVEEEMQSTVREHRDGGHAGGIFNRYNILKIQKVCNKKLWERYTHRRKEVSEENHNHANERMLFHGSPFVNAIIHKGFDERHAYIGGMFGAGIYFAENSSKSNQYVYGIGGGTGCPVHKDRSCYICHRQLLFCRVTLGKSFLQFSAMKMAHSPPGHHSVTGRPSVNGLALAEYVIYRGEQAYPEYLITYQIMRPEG
Chain of 6×HIS-tankyrase 1 (1091-1325) (O95271 1091-1325): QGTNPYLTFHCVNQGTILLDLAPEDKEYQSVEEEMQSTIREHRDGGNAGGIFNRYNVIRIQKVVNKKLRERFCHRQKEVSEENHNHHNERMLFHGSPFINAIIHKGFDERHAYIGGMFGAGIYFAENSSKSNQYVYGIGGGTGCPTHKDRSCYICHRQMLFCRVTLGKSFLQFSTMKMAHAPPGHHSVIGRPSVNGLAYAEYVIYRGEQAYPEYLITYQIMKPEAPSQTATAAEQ

Compound: CC1(C)OC(=O)N([C@H]2CC[C@H](n3c(=O)[nH]c4cc(C#N)ccc43)CC2)[C@H]1c1ccccc1 [Example 47, 1-((1S,4r)-4-((S)-5,5-dimethyl-2-oxo-4-phenyloxazolidin-3-yl)cyclohexyl)-2-oxo-2,3-dihydro-1H-benzo[d]imidazole-5-carbonitrile]
- pIC50 [1, 6]: 7.27
- pEC50 (Axin2 in SW480 cells; Homo sapiens, SW480 cells, 24 hours): 7.14
- pIC50 ([2]; DLD-1, read-out: DLD1-STF-FF/RL * 100 IC50): 7.92

Compound: CC1(C)OC(=O)N([C@H]2CC[C@H](NC(=O)c3cccc4cccnc34)CC2)[C@@H]1c1ccccc1 (single isomer, unassigned) [Example 28]
- pIC50 [3, 7]: 6.95

Compound: CC1(C)OC(=O)N([C@H]2CC[C@H](n3c(=O)[nH]c4cnccc43)CC2)[C@H]1c1ccccc1 [Example 23, (S)-5,5-dimethyl-3-((1r,4S)-4-(2-oxo-2,3-dihydro-1H-imidazo[4,5-c]pyridin-1-yl)cyclohexyl)-4-phenyloxazolidin-2-one]
- pIC50 [1, 6]: 6.84
- pEC50 (Axin2 in SW480 cells; [8]): 6.64
- pIC50 ([2]; DLD-1 reporter cells, 40 to 48 hours, read-out: DLD1-STF-FF/RL * 100 IC50): 7.36

Compound: CC1(C)OC(=O)N(c2ccc(-c3cnc(N)c(-c4ncc(F)cn4)c3)cc2)[C@H]1c1ccccc1 [Example 64, (S)-3-(4-(6-amino-5-(5-fluoropyrimidin-2-yl)pyridin-3-yl)phenyl)-5,5-dimethyl-4-phenyloxazolidin-2-one]
- pIC50 [4]: 7.07
- pIC50 [5]: 7.32
- pIC50 [1, 6]: 6.53
- pEC50 (Axin2 in SW480 cells; [8]): 5.49

Compound: CC1(C)OC(=O)N([C@H]2CC[C@H](C(=O)Nc3cccc4cccnc34)CC2)[C@H]1c1ccccc1 [Example 32, (1S,4r)-4-((S)-5,5-dimethyl-2-oxo-4-phenyloxazolidin-3-yl)-N-(quinolin-8-yl)cyclohexanecarboxamide]
- pIC50 [3, 7]: 7.03

Compound: CC1(C)OC(=O)N([C@H]2CC[C@H](n3c(=O)[nH]c4ccccc43)CC2)C1c1ccccc1 (stereo partly shown) [Example 35, (R+S) 5,5-dimethyl-3-((1r,4r)-4-(2-oxo-2,3-dihydro-1H-benzo[d]imidazol-1-yl)cyclohexyl)-4-phenyloxazolidin-2-one]
- pIC50 [4]: 7.93
- pIC50 [1, 6]: 5.88
- pEC50 (Axin2 in SW480 cells; [8]): 5.17
- pIC50 [3, 7]: 6.27

Compound: CC1(C)OC(=O)N([C@H]2CC[C@H](n3c(=O)[nH]c4cccnc43)CC2)[C@H]1c1ccccc1 [Example 37, (S)-5,5-dimethyl-3-((1r,4S)-4-(2-oxo-1H-imidazo[4,5-b]pyridin-3(2H)-yl)cyclohexyl)-4-phenyloxazolidin-2-one]
- pIC50 [1, 6]: 6.29
- pEC50 (Axin2 in SW480 cells; [8]): 5.45
- pIC50 [3, 7]: 6.74

Compound: CC1(C)OC(=O)N([C@H]2CC[C@H](c3cnc(N)c(C4=NCCCN4)c3)CC2)[C@H]1c1ccccc1 [Example 77, (S)-3-((1r,4S)-4-(6-amino-5-(1,4,5,6-tetrahydropyrimidin-2-yl)pyridin-3-yl)cyclohexyl)-5,5-dimethyl-4-phenyloxazolidin-2-one]
- pIC50 [4]: 5.78
- pIC50 [1, 6]: < 5.00
- pEC50 (Axin2 in SW480 cells; [8]): < 4.60

Compound: CC1(C)OC(=O)N([C@@H]2CC=C(c3cc(-c4ncccn4)c[nH]c3=O)CC2)[C@H]1c1ccccc1 (single isomer, unassigned) [Example 5]
- pIC50 [4]: 7.62
- pIC50 [1, 6]: 6.35
- pEC50 (Axin2 in SW480 cells; [8]): 6.09

Compound: CC1(C)OC(=O)N(c2ccc(-c3cc(-c4ccccn4)c[nH]c3=O)cc2)[C@H]1c1ccccc1 [Example 115, (S)-5,5-dimethyl-3-(4-(6′-oxo-1′,6′-dihydro-[2,3′-bipyridin]-5′-yl)phenyl)-4-phenyloxazolidin-2-one]
- pIC50 [4]: 7.02
- pIC50 [1, 6]: 6.00
- pEC50 (Axin2 in SW480 cells; [8]): 5.36

Compound: CC1(C)OC(=O)N(c2ccc(C(=O)Nc3cccc4cccnc34)cc2)[C@H]1c1ccc(F)cc1 [Example 2, (S)-4-(4-(4-fluorophenyl)-5,5-dimethyl-2-oxooxazolidin-3-yl)-N-(quinolin-8-yl)benzamide]
- pIC50 [4]: 6.51
- pIC50 [1, 6]: 5.71
- pEC50 (Axin2 in SW480 cells; [8]): 5.26

Compound: CC1(C)OC(=O)N(c2ccc(-c3cc(-c4ncccn4)c[nH]c3=O)cc2)[C@H]1c1ccccc1 [Example 4, (S)-5,5-Dimethyl-3-(4-(2-oxo-5-(pyrimidin-2-yl)-1,2-dihydropyridin-3-yl)phenyl)-4-phenyloxazolidin-2-one]
- pIC50 [4]: 7.11
- pIC50 [5]: 7.18
- pIC50 [1, 9]: 6.12
- pEC50 (Axin2 in SW480 cells; Homo sapiens, SW480, 24 h): 5.55
- pIC50 ([3]; HEK293, read-out: 2H9-Wnt3a-STF-FF/RL * 100 IC50): 6.54

Compound: CC1(C)OC(=O)N(c2ccc(-n3cc(-c4ccccc4)[nH]c3=O)cc2)[C@H]1c1ccccc1 [Example 80, (4S)-5,5-dimethyl-3-(4-(2-oxo-4-phenyl-2,3-dihydro-1H-imidazol-1-yl)phenyl)-4-phenyl-1,3-oxazolidin-2-one]
- pIC50 [4]: 5.51
- pIC50 [1, 6]: 5.87
- pEC50 (Axin2 in SW480 cells; [8]): < 4.90
- pEC50 (Axin2 in SW480 cells; SW480 cells, 24 hours): < 4.60

Compound: CC1(C)OC(=O)N([C@H]2CC[C@H](n3c(=O)[nH]c4cnccc43)CC2)[C@H]1c1ccc(F)cc1 [Example 55, (S)-4-(4-Fluorophenyl)-5,5-dimethyl-3-((1r,4S)-4-(2-oxo-2,3-dihydro-1H-imidazo[4,5-c]pyridin-1-yl)cyclohexyl)oxazolidin-2-one]
- pIC50 [4]: 8.53
- pIC50 [1, 6]: 6.84
- pEC50 (Axin2 in SW480 cells; [8]): 7.00

Compound: CC1(C)OC(=O)N(c2ccc(-c3cc(-c4nccc(C#N)n4)c[nH]c3=O)cc2)[C@H]1c1ccccc1 [Example 120, (S)-2-(5-(4-(5,5-dimethyl-2-oxo-4-phenyloxazolidin-3-yl)phenyl)-6-oxo-1,6-dihydropyridin-3-yl)pyrimidine-4-carbonitrile]
- pIC50 [4]: 7.12
- pIC50 [1, 6]: 5.63
- pEC50 (Axin2 in SW480 cells; [8]): 6.08

Compound: CC1(C)OC(=O)N(c2ccc(C(=O)Nc3cccc4cccnc34)cc2)[C@H]1c1ccncc1 [Example 126, (S)-4-(5,5-dimethyl-2-oxo-4-(pyridin-4-yl)oxazolidin-3-yl)-N-(quinolin-8-yl)benzamide]
- pIC50 [4]: 6.57
- pIC50 [1, 9]: 6.12
- pEC50 (Axin2 in SW480 cells; [8]): 5.34

Compound: CC1(C)OC(=O)N(c2ccc(-c3cnc(N)c(-c4ccc5nncn5n4)c3)cc2)[C@H]1c1ccccc1 [Example 12, (S)-3-(4-(5-([1,2,4]triazolo[4,3-b]pyridazin-6-yl)-6-aminopyridin-3-yl)phenyl)-5,5-dimethyl-4-phenyloxazolidin-2-one]
- pIC50 [4]: 7.28
- pIC50 [5]: 7.31
- pIC50 [1, 6]: 6.67
